Some results are limits rather than exact numbers.

Assay [1] has as its system Human peripheral blood mononuclear cells (PBMC), TNF-α release. The assay can be described thus: TNF-α release in LPS-stimulated PBMC. The following applies: 30 minutes pre-incubation, stimulated for 18 hours with lipopolysaccharide, read-out: TNF-α IC50 range. It is filed as cell-based. The protocol: Human peripheral blood mononuclear cells (PBMC) were isolated from buffy coats. The blood is mixed with saline at a ratio of 1:1, and the PBMC were isolated using Lymphoprep Tubes™ (Nycomed, Norway). The PBMC were suspended in RPMI1640 with 0.5% human serum albumin, pen/strep and 2 mM L-glutamine at a concentration of 5×105 c/ml. The cells were pre-incubated for 30 minutes with the test compounds in 96 well tissue culture plates and stimulated for 18 hours with lipopolysaccharide […] (Sigma). TNF-α concentration in the supernatants was measured using homogeneous time-resolved fluorescence resonance (TR-FRET). The assay is quantified by measuring fluorescence at 665 nm (proportional to TNF-α concentration) and 620 nm (control).
Results were expressed as IC50 values calculated from inhibition curves using as positive controls the secretion in LPS stimulated wells and as negative controls the secretion in unstimulated cells.

The target in assay [2] is human PDE4D catalytic domain (Homo sapiens (Human), UniProt Q08499). The assay can be described thus: PDE4 Assay (TR-FRET, cAMP cleavage). Conditions: 50% inhibition of substrate cleavage, read-out: PDE4 IC50 range. It is filed as biochemical. How it is done:
The human PDE4D catalytic domain (UniProt no. Q08499 [[…]]) was incubated with a mixture of non-labelled cAMP (cyclic adenosine monophosphate) and fluorescein amidite (FAM) conjugated cAMP and titrated test or reference compound. Following brief incubation the enzymatic reaction was stopped by addition of binding buffer containing nanoparticles with immobilized trivalent metal ions capable of binding 1) AMP phospho groups and 2) terbium (Tb) donor fluorophores. Subsequent excitation of the Tb donor triggers time-resolved FRET to adjacent FAM acceptor molecules resulting in light emission. In the presence of a PDE4 inhibitor, AMP generation was reduced resulting in a lower fluorescence signal. The cAMP phosphodiester is not bound by the detection system.
The results were calculated as the molar concentrations resulting in 50% inhibition of the substrate cleavage compared to controls samples, and are expressed as IC50 (nM).
(In general: Time-resolved FRET reads energy transfer from a long-lived donor to a nearby acceptor.)

Chain of human PDE4D catalytic domain (Q08499 380-740 limits assumed): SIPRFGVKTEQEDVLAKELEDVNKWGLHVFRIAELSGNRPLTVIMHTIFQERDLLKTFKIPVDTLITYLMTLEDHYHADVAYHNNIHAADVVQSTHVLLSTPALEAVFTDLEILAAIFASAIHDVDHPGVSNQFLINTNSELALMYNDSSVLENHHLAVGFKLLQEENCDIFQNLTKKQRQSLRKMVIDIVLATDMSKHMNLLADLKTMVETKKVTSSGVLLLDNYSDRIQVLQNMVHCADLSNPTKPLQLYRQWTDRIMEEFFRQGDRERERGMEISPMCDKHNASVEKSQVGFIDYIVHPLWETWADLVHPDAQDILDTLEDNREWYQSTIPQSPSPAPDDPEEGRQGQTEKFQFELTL

With `[O-][S+]1CCc2nc(N3CC(c4ccc(F)cc4)C3)cc(NC3CCOCC3)c21` (stereo in doubt) [Example 1, (1R)-5-(3-(4-Fluorophenyl)azetidin-1-yl)-7-((tetrahydro-2H-pyran-4-yl)amino)-2,3-dihydrothieno[3,2-b]pyridine 1-oxide], the IC50 – broadly, the concentration at which inhibition is half-maximal – in assay [1] is < 0.01 µM; in assay [2] it was 0.01 to 0.05 µM.

`[O-][S@+]1CCc2nc(N3CC(c4ccccc4)C3)cc(NC3CCOCC3)c21` [Example 7, (1R)-5-(3-Phenylazetidin-1-yl)-7-((tetrahydro-2H-pyran-4-yl)amino)-2,3-dihydrothieno[3,2-b]pyridine-1-oxide]: the 50% inhibitory concentration (IC50) in assay [1] and in assay [2] was 0.01 to 0.05 µM in each case.

On to `COC(=O)N1CCC[C@@H](Nc2cc(N3CC(c4ccccc4)C3)nc3c2[S@+]([O-])CC3)C1` [Example 3], for which the IC50 in assay [1] and in assay [2] was < 0.01 µM throughout.

`[O-][S+]1CCc2nc(N3CC(Oc4ccc(F)cc4)C3)cc(NC3CCOCC3)c21` (stereo in doubt) [Example 4, (1R)-5-(3-(4-Fluorophenoxy)azetidin-1-yl)-7-((tetrahydro-2H-pyran-4-yl)amino)-2,3-dihydrothieno[3,2-b]pyridine-1-oxide]: the IC50 in assay [1] and in assay [2] was 0.01 to 0.05 µM throughout.

As for `CC(=O)N1CC[C@H](Nc2cc(N3CC(Oc4ccc(F)cc4)C3)nc3c2[S@+]([O-])CC3)C1` [Example 6, 1-[(3S)-3-[[(1R)-5-[3-(4-Fluorophenoxy)azetidin-1-yl]-1-oxido-2,3-dihydrothieno[3,2-b]pyridin-7-yl]amino]pyrrolidin-1-yl]ethanone], the IC50 in assay [1] was 0.01 to 0.05 µM; in assay [2], < 0.01 µM.

For `COC(=O)N1CC[C@H](Nc2cc(N3CC(Oc4ccc(F)cc4)C3)nc3c2[S@+]([O-])CC3)C1` [Example 5, Methyl (3S)-3-[[(1R)-5-[3-(4-fluorophenoxy)azetidin-1-yl]-1-oxido-2,3-dihydrothieno[3,2-b]pyridine-7-yl]amino]pyrrolidine-1-carboxylate], the IC50 in assay [1] and in assay [2] was 0.05 to 0.15 µM throughout.

Take `COC(=O)N1CCC[C@@H](Nc2cc(N3CC(c4ccc(F)cc4)C3)nc3c2[S@+]([O-])CC3)C1` [Example 2, Methyl (3R)-3-[[(1R)-5-[3-(4-fluorophenyl)azetidin-1-yl]-1-oxido-2,3-dihydrothieno-[3,2-b]pyridin-7-yl]amino]piperidine-1-carboxylate]: the IC50 in assay [1] and in assay [2] was < 0.01 µM in each case.

(Values after patent US11384096B2, “Substituted azetidine dihydrothienopyridines and their use as phosphodiesterase inhibitors” (UNION therapeutics A/S, priority 2017, dated 2022).)
